Patent US10183946B2, “Triazolo[4,5-D]pyrimidines” (Hoffmann—La Roche Inc., priority 2014, dated 2019)

Legend:
human CB1 receptors = human CB1 receptors (Homo sapiens (Human), UniProt P21554); assay: cAMP assay, CHO cells expressing human CB1 receptors; format: cell-based; conditions: functional cAMP assay, CHO cells expressing human CB1; read-out: CB1 hcAMP EC50
Description: (§1) CHO cells expressing human CB1 or CB2 receptors are seeded 17-24 hours prior to the experiment 50.000 cells per well in a black 96 well plate with flat clear bottom (Corning Costar #3904) in DMEM (Invitrogen No. 31331), 1×HT supplement, with 10% fetal calf serum and incubated at 5% CO2 and 37° C. in a humidified incubator. The growth medium was exchanged with Krebs Ringer Bicarbonate buffer with 1 mM IBMX and incubated at 30° C. for 30 min. Compounds were added to a final assay volume of 100 μl and incubated for 30 min at 30° C. Using the cAMP-Nano-TRF detection kit the assay (Roche Diagnostics) was stopped by the addition of 50 μl lysis reagent (Tris, NaCl, 1.5% Triton X100, 2.5% NP40, 10% NaN3) and 50 μl detection solutions (20 μM mAb Alexa700-cAMP 1:1, and 48 μM Ruthenium-2-AHA-cAMP) and shaken for 2 h at room temperature. The time-resolved energy transfer is measured by a TRF reader (Evotec Technologies GmbH), equipped with a ND:YAG laser as excitation source. The plate is measured twice with the excitation at 355 nm and at the emission with a delay of 100 ns and a gate of 100 ns, total exposure time 10 s at 730 (bandwidth 30 nm) or 645 nm (bandwidth 75 nm), respectively. The FRET signal is calculated as follows: FRET=T730-Alexa730-P(T645-B645) with P=Ru730-B730/Ru645-B645, where T730 is the test well measured at 730 nM, T645 is the test well measured at 645 nm, B730 and B645 are the buffer controls at 730 nm and 645 nm, respectively. cAMP content is determined from the function of a standard curve spanning from 10 μM to 0.13 nM cAMP.
(§2) EC50 values were determined using Activity Base analysis (ID Business Solution, Limited). The EC50 values for a wide range of cannabinoid agonists generated from this assay were in agreement with the values published in the scientific literature.

human CB2 receptors = human CB2 receptors (Homo sapiens (Human), UniProt P34972); assay: cAMP assay, CHO cells expressing human CB2 receptors; format: cell-based; conditions: functional cAMP assay, read-out: CB2 hcAMP EC50
human CB2 receptors, sequence (P34972 whole entry): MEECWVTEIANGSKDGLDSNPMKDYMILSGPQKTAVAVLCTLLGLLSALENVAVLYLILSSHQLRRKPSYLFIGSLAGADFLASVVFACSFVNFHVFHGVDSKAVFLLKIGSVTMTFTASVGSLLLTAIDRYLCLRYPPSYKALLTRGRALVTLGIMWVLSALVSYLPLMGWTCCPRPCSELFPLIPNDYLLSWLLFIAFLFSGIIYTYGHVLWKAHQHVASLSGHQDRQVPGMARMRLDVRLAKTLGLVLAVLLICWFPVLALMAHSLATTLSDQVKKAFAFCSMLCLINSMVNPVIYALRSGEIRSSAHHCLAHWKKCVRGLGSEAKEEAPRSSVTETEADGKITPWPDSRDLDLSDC
Description: as §1, §2

human CB1 receptors, sequence (P21554 whole entry): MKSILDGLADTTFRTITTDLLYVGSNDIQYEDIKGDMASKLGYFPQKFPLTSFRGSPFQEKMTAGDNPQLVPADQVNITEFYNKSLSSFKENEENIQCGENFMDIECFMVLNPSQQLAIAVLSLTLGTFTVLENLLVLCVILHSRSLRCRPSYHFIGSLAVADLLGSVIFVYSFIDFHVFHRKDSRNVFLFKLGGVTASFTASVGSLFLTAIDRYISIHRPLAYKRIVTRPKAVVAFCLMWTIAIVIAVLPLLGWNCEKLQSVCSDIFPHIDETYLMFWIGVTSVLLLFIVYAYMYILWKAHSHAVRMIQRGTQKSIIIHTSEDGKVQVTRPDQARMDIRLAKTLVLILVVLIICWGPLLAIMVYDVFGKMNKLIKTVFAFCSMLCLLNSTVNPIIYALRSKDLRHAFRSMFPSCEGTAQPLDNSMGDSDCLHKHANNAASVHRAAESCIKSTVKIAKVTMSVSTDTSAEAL

| SMILES | EC50 (human CB1 receptors) | EC50 (human CB2 receptors) |
| --- | --- | --- |
| Cc1ccc(-c2nc(C(C)(C)C)nc3c2nnn3Cc2ccccc2Cl)cc1 [Example 1, 5-tert-butyl-3-[(2-chlorophenyl)methyl]-7-(4-methylphenyl)triazolo[4,5-d]pyrimidine] | > 10000 nM | 206 nM |
| CC(C)(C)c1nc(-c2ccc(F)cc2)c2nnn(Cc3ccccc3Cl)c2n1 [Example 2, 5-tert-butyl-3-[(2-chlorophenyl)methyl]-7-(4-fluorophenyl)triazolo[4,5-d]pyrimidine] | > 10000 nM | 28.5 nM |
| COc1ccc(-c2nc(C(C)(C)C)nc3c2nnn3Cc2ccccc2Cl)cc1 [Example 3, 5-tert-butyl-3-[(2-chlorophenyl)methyl]-7-(4-methoxyphenyl)triazolo[4,5-d]pyrimidine] | > 10000 nM | 239 nM |
| CC(C)(C)c1nc(-c2ccccc2F)c2nnn(Cc3ccccc3Cl)c2n1 [Example 4, 5-tert-butyl-3-[(2-chlorophenyl)methyl]-7-(2-fluorophenyl)triazolo[4,5-d]pyrimidine] | > 10000 nM | 65.2 nM |
| CC(C)(C)c1nc(-c2ccc(Cl)cc2F)c2nnn(Cc3ccccc3Cl)c2n1 [Example 5, 5-tert-butyl-7-(4-chloro-2-fluorophenyl)-3-[(2-chlorophenyl)methyl]triazolo[4,5-d]pyrimidine] | > 10000 nM | 88.2 nM |
| CC(C)(C)c1nc(-c2ccc(F)nc2)c2nnn(Cc3ccccc3Cl)c2n1 [Example 6, 5-tert-butyl-3-[(2-chlorophenyl)methyl]-7-(6-fluoropyridin-3-yl)triazolo[4,5-d]pyrimidine] | > 10000 nM | 2.7 nM |
| Cc1ccc(-c2nc(C(C)(C)C)nc3c2nnn3Cc2ccccc2Cl)nc1 [Example 7, 5-tert-butyl-3-[(2-chlorophenyl)methyl]-7-(5-methylpyridin-2-yl)triazolo[4,5-d]pyrimidine] | > 10000 nM | 488 nM |
| Cn1cc(-c2nc(C(C)(C)C)nc3c2nnn3Cc2ccccc2Cl)cn1 [Example 8, 5-tert-butyl-3-[(2-chlorophenyl)methyl]-7-(1-methylpyrazol-4-yl)triazolo[4,5-d]pyrimidine] | > 10000 nM | 17.4 nM |
| Cn1nccc1-c1nc(C(C)(C)C)nc2c1nnn2Cc1ccccc1Cl [Example 9, 5-tert-butyl-3-[(2-chlorophenyl)methyl]-7-(2-methylpyrazol-3-yl)triazolo[4,5-d]pyrimidine] | > 10000 nM | 44.3 nM |
| CC(C)(C)c1nc(-c2ccccc2)c2nnn(Cc3ccccc3Cl)c2n1 [Example 10, 5-tert-butyl-3-[(2-chlorophenyl)methyl]-7-phenyltriazolo[4,5-d]pyrimidine] | > 10000 nM | 80.2 nM |
| Cc1oncc1-c1nc(C(C)(C)C)nc2c1nnn2Cc1ccccc1Cl [Example 11, 4-[5-tert-butyl-3-[(2-chlorophenyl)methyl]triazolo[4,5-d]pyrimidin-7-yl]-5-methyl-1,2-oxazole] | > 10000 nM | 76.5 nM |
| Cn1nccc1-c1nc(C(C)(C)C)nc2c1nnn2Cc1ccccc1S(C)(=O)=O [Example 12, 5-tert-butyl-7-(2-methylpyrazol-3-yl)-3-[(2-methylsulfonylphenyl)methyl]triazolo[4,5-d]pyrimidine] | > 10000 nM | 3 nM |
| Cn1nccc1-c1nc(C(C)(C)C)nc2c1nnn2Cc1nnnn1C [Example 13, 5-tert-butyl-7-(2-methylpyrazol-3-yl)-3-[(1-methyltetrazol-5-yl)methyl]triazolo[4,5-d]pyrimidine] | > 10000 nM | 33.3 nM |
| Cc1nonc1Cn1nnc2c(-c3ccnn3C)nc(C(C)(C)C)nc21 [Example 14, 3-[[5-tert-butyl-7-(2-methylpyrazol-3-yl)triazolo[4,5-d]pyrimidin-3-yl]methyl]-4-methyl-1,2,5-oxadiazole] | > 10000 nM | 1.3 nM |
| Cc1nnc(Cn2nnc3c(-c4ccnn4C)nc(C(C)(C)C)nc32)o1 [Example 15, 2-[[5-tert-butyl-7-(2-methylpyrazol-3-yl)triazolo[4,5-d]pyrimidin-3-yl]methyl]-5-methyl-1,3,4-oxadiazole] | > 10000 nM | 317 nM |
| Cn1nccc1-c1nc(C(C)(C)C)nc2c1nnn2CC(O)CC(F)(F)F (centres unmarked) [Example 16, 1-[5-tert-butyl-7-(2-methylpyrazol-3-yl)triazolo[4,5-d]pyrimidin-3-yl]-4,4,4-trifluorobutan-2-ol] | > 10000 nM | 42.4 nM |

| SMILES | EC50 (human CB1 receptors) | EC50 (human CB2 receptors) |
| --- | --- | --- |
| Cn1nccc1-c1nc(C(C)(C)C)nc2c1nnn2C[C@H](O)C(F)(F)F [Example 17, (2S)-3-[5-tert-butyl-7-(2-methylpyrazol-3-yl)triazolo[4,5-d]pyrimidin-3-yl]-1,1,1-trifluoropropan-2-ol] | > 10000 nM | 77.2 nM |
| Cn1nccc1-c1nc(C(C)(C)C)nc2c1nnn2C1CCOC1 (centres unmarked) [Example 18, 5-tert-butyl-7-(2-methylpyrazol-3-yl)-3-(oxolan-3-yl)triazolo[4,5-d]pyrimidine] | > 10000 nM | 86 nM |
| Cn1nccc1-c1nc(C(C)(C)C)nc2c1nnn2C1COC1 [Example 19, 5-tert-butyl-7-(2-methylpyrazol-3-yl)-3-(oxetan-3-yl)triazolo[4,5-d]pyrimidine] | > 10000 nM | 190 nM |
| Cn1nccc1-c1nc(C(C)(C)C)nc2c1nnn2Cc1ncccc1Cl [Example 21, 5-tert-butyl-3-[(3-chloropyridin-2-yl)methyl]-7-(2-methylpyrazol-3-yl)triazolo[4,5-d]pyrimidine] | > 10000 nM | 39.5 nM |
| Cn1nccc1-c1nc(C(C)(C)C)nc2c1nnn2CC(C)(C)O [Example 22, 1-[5-tert-butyl-7-(2-methylpyrazol-3-yl)triazolo[4,5-d]pyrimidin-3-yl]-2-methylpropan-2-ol] | > 10000 nM | 206 nM |
| Cn1nccc1-c1nc(C(C)(C)C)nc2c1nnn2CC1(C)COC1 [Example 23, 5-tert-butyl-3-[(3-methyloxetan-3-yl)methyl]-7-(2-methylpyrazol-3-yl)triazolo[4,5-d]pyrimidine] | > 10000 nM | 445 nM |
| Cn1cc(-c2nc(C(C)(C)C)nc3c2nnn3Cc2nnnn2C)cn1 [Example 24, 5-tert-butyl-7-(1-methylpyrazol-4-yl)-3-[(1-methyltetrazol-5-yl)methyl]triazolo[4,5-d]pyrimidine] | > 10000 nM | 156 nM |
| Cn1nnnc1Cn1nnc2c(-c3cn[nH]c3)nc(C(C)(C)C)nc21 [Example 25, 5-tert-butyl-3-[(1-methyltetrazol-5-yl)methyl]-7-(1H-pyrazol-4-yl)triazolo[4,5-d]pyrimidine] | > 10000 nM | 32 nM |
| Cn1nnnc1Cn1nnc2c(-c3cc[nH]n3)nc(C(C)(C)C)nc21 [Example 26, 5-tert-butyl-3-[(1-methyltetrazol-5-yl)methyl]-7-(1H-pyrazol-3-yl)triazolo[4,5-d]pyrimidine] | > 10000 nM | 578 nM |
| Cc1oncc1-c1nc(C(C)(C)C)nc2c1nnn2Cc1nnnn1C [Example 27, 4-[5-tert-butyl-3-[(1-methyltetrazol-5-yl)methyl]triazolo[4,5-d]pyrimidin-7-yl]-5-methyl-1,2-oxazole] | > 10000 nM | 515 nM |
| Cn1nnnc1Cn1nnc2c(-c3ncc[nH]3)nc(C(C)(C)C)nc21 [Example 28, 5-tert-butyl-7-(1H-imidazol-2-yl)-3-[(1-methyltetrazol-5-yl)methyl]triazolo[4,5-d]pyrimidine] | > 10000 nM | 12.5 nM |
| Cn1nnnc1Cn1nnc2c(-c3cnnn3Cc3ccccc3)nc(C(C)(C)C)nc21 [Example 29, 7-(3-benzyltriazol-4-yl)-5-tert-butyl-3-[(1-methyltetrazol-5-yl)methyl]triazolo[4,5-d]pyrimidine] | > 10000 nM | 16.6 nM |
| CC(C)(C)c1nc(C2(O)CCC2)c2nnn(Cc3ccccc3)c2n1 [Example 31, 1-(3-Benzyl-5-tert-butyltriazolo[4,5-d]pyrimidin-7-yl)cyclobutan-1-ol] | 645 nM | 4.5 nM |
| CC(C)(C)c1nc(C2(F)CCC2)c2nnn(Cc3ccccc3)c2n1 [Example 32, 3-Benzyl-5-tert-butyl-7-(1-fluorocyclobutyl)triazolo[4,5-d]pyrimidine] | > 10000 nM | 24 nM |
| CC(C)(C)c1nc(C2(O)CCC2)c2nnn(Cc3ccccc3Cl)c2n1 [Example 33, 1-[5-tert-Butyl-3-[(2-chlorophenyl)methyl]triazolo[4,5-d]pyrimidin-7-yl]cyclobutanol] | > 10000 nM | 233 nM |
